Test results taken from US20110071178A1, “Methods and Compounds for Modulating Cannabinoid Activity” (Northeastern University, priority 2007, published 2011).

Assays:
MGL = target: T1, MGL (Rattus norvegicus, UniProt Q8R431); settings: 100 µM
T1 sequence (Q8R431 1-303): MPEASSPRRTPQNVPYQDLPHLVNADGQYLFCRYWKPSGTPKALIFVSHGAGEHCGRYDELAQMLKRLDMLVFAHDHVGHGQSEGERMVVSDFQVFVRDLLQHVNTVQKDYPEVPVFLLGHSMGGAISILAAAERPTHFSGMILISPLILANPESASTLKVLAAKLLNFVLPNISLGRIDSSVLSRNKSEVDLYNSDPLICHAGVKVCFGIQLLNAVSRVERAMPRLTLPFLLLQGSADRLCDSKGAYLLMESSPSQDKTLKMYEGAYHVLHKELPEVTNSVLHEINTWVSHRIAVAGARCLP
Description: The percentage of inhibition describes the percentage by which the inhibitor reduces the velocity/rate of 2-AG hydrolysis by MGL. […] The Ki value is the affinity constant and describes the affinity of the inhibitor for the MGL.
These rat brains are homogenized in 5 volumes of ice-cold buffer (0.32 M sucrose, 10 mM Tris base, 5 mM EDTA, pH 7.4) then centrifuged at 17400 g for 30 min. The supernatant was further centrifuged at 124,000 g for 90 min. The supernatant from the last certifugation step (cytosol fraction) is resuspended in TME buffer (25 mM Tris base, 5 mM MgCl2, 1 mM EDTA, pH 7.4) for the MGL preparation. Aliquots (1 ml) from the preparation are flash frozen in liquid nitrogen and stored at −80° C. until used. Protein concentration of the enzyme suspension is determined using the BioRad protein assay kit. […]
Again the reaction mixture is treated in the same manner as described above and the concentrations of 2-AG and AA are calculated using external standards. Percent inhibition is calculated using the following equation: […]
where (AA20−AA0)c is the amount of arachidonic acid formed over 20 min from 2-AG with the inhibitor present and (AA20−AA0)s is the amount of arachidonic acid formed over 20 min from 2-AG when the inhibitor is not present. […] The reaction mixtures are treated as described above and the amount of AA formed was calculated. […]

SMILES | melting point [°C] | inhibition (MGL) [%]
O=S(=O)(Cl)CCCCCCCc1ccc(OCc2ccccc2)cc1 [Compound 12.1, 7-(4-Benzyloxy-phenyl)-heptanesulfonyl chloride] | 33 to 35 | 
O=S(=O)(Cl)CCCCCc1ccc(OCc2ccccc2)cc1 [Compound 12.4, 5-(4-Benzyloxy-phenyl)-pentanesulfonyl chloride] | 58 to 60 | 
O=S(=O)(F)CCCCCc1ccc(O)cc1 [Compound 14.4, 5-(4-Hydroxy-phenyl)-pentanesulfonyl fluoride] | 32 to 35 | 
CCOC(=O)NCc1ccc(Br)cc1 [Compound 57.1] |  | 44
